Here are results for six compounds from paper PMC4858680, “A platinum-based hybrid drug design approach to circumvent acquired resistance to molecular targeted tyrosine kinase inhibitors” (Scientific Reports, 2016).

In series [1] the target is T1, MET (Homo sapiens, UniProt P08581). The conditions noted are these: 10 μM.
In another series the target is MET(Y1235D) (Homo sapiens, UniProt P08581, Y1235D). Particulars: 10 μM.
Series [2] is described as follows: Chemical stability of the hybrid compounds. The conditions noted are these: saline, phosphate buffered solution (pH 4 and 7.4), culture medium with 5 mM glutathione.
The target of the next series is MET(M1250T) (Homo sapiens, UniProt P08581, M1250T). Particulars: 10 μM.
A further series concerns the target ABL2 (Homo sapiens, UniProt P42684). Particulars: 10 μM.
A further series addresses SRC (Homo sapiens, UniProt P12931). The conditions noted are these: 10 μM.
A further series has as its target SYK (Homo sapiens, UniProt P43405). The conditions noted are these: 10 μM.
The target in another series is T2, EPHB6 (Homo sapiens, UniProt O15197).
T2 sequence (O15197 32-1021): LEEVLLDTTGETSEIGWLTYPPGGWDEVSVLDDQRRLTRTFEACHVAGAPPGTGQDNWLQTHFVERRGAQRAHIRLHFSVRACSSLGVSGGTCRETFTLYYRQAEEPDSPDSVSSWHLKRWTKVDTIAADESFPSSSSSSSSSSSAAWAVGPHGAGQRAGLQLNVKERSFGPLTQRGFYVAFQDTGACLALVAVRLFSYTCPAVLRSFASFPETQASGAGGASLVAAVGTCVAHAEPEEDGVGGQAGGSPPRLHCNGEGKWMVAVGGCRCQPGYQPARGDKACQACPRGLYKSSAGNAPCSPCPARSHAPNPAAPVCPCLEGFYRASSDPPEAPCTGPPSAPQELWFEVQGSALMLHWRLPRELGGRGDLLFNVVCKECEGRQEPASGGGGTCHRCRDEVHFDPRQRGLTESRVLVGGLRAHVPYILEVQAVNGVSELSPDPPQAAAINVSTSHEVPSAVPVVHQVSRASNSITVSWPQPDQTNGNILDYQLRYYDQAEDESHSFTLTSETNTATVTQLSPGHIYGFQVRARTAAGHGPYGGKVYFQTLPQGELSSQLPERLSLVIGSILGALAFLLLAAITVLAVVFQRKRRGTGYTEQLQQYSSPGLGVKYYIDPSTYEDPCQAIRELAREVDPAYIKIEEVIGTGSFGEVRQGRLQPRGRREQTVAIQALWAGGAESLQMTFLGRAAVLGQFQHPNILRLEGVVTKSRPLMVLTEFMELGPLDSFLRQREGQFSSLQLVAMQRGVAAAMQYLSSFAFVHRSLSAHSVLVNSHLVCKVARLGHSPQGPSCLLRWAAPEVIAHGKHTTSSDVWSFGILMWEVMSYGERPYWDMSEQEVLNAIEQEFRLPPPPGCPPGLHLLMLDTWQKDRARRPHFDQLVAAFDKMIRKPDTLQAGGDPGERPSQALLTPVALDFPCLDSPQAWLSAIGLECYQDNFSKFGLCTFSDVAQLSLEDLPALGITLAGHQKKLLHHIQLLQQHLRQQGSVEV
The series can be described thus: biochemical. The conditions noted are these: read-out: Percent control.

The target of a further series is FYN (Homo sapiens, UniProt P06241). The series can be described thus: biochemical. The conditions noted are these: read-out: Percent control.
FYN, sequence (P06241 whole entry): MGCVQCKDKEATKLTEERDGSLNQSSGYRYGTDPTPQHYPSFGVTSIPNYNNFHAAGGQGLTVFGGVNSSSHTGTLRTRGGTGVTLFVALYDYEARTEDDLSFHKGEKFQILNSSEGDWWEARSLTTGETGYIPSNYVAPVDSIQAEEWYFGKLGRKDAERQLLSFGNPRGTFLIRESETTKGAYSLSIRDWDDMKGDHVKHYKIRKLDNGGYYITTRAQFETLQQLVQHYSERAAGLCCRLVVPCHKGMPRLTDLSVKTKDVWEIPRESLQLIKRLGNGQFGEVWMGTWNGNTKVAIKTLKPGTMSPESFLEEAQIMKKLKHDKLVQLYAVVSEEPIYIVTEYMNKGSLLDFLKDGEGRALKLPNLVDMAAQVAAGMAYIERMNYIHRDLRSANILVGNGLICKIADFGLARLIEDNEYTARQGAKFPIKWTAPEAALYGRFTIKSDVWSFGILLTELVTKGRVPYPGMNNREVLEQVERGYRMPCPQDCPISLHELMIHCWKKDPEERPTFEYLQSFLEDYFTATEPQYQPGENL
A further series deals with LTK (Homo sapiens, UniProt P29376). The series can be described thus: biochemical. Particulars: read-out: Percent control.
LTK, sequence (P29376 17-864): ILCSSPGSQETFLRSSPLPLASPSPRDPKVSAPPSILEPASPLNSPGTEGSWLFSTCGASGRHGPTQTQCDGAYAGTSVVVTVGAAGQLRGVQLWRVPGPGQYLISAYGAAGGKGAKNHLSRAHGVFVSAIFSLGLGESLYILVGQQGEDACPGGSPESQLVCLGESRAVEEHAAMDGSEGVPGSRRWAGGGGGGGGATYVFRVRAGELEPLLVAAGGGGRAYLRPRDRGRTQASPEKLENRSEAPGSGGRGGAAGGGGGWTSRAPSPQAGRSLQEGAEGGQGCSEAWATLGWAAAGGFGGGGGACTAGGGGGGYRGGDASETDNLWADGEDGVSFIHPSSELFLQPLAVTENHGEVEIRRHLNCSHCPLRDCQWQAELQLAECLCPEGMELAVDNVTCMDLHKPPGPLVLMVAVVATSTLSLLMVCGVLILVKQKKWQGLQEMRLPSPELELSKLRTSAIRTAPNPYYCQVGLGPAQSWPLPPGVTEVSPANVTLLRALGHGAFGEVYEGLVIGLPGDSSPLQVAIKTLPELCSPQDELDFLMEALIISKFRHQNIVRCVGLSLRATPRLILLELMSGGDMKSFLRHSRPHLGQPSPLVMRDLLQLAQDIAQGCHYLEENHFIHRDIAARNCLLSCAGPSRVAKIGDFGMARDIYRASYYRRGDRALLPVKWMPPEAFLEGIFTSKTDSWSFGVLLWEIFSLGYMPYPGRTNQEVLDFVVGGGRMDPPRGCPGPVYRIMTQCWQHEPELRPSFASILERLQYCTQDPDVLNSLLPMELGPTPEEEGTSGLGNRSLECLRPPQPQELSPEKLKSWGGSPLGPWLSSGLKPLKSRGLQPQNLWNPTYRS
In a further series the target is KIT (Homo sapiens, UniProt P10721). The series can be described thus: biochemical. The conditions noted are these: read-out: Percent control.
KIT, sequence (P10721 26-976): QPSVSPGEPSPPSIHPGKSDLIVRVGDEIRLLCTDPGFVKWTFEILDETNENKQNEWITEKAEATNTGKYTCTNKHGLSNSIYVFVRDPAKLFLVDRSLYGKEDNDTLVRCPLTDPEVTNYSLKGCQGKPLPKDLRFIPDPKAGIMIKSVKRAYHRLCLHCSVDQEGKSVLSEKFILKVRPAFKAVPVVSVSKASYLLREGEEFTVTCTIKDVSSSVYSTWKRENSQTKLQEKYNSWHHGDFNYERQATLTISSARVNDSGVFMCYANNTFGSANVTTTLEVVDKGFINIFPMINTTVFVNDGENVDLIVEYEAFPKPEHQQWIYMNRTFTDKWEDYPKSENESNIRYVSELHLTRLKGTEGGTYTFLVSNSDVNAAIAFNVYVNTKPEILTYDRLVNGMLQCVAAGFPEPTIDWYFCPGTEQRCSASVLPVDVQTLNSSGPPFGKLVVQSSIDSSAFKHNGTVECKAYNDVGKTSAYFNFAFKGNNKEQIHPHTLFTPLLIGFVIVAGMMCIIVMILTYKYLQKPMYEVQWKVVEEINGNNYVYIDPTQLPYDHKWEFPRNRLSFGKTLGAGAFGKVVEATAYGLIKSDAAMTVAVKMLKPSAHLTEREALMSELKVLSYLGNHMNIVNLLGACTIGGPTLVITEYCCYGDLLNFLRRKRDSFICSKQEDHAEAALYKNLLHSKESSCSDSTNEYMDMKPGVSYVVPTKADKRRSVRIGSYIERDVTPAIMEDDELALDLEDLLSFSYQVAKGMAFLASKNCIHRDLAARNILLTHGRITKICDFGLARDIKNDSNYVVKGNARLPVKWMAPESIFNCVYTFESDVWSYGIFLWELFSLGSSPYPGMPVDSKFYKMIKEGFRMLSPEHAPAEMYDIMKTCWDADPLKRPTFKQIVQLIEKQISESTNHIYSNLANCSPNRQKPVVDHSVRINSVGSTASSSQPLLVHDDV
Series [3] concerns the target T1, MET. The series can be described thus: biochemical. Particulars: read-out: Percent control.
For a further series, the target named is T3, EPHB4 (Homo sapiens, UniProt P54760).
T3 sequence (P54760 16-987): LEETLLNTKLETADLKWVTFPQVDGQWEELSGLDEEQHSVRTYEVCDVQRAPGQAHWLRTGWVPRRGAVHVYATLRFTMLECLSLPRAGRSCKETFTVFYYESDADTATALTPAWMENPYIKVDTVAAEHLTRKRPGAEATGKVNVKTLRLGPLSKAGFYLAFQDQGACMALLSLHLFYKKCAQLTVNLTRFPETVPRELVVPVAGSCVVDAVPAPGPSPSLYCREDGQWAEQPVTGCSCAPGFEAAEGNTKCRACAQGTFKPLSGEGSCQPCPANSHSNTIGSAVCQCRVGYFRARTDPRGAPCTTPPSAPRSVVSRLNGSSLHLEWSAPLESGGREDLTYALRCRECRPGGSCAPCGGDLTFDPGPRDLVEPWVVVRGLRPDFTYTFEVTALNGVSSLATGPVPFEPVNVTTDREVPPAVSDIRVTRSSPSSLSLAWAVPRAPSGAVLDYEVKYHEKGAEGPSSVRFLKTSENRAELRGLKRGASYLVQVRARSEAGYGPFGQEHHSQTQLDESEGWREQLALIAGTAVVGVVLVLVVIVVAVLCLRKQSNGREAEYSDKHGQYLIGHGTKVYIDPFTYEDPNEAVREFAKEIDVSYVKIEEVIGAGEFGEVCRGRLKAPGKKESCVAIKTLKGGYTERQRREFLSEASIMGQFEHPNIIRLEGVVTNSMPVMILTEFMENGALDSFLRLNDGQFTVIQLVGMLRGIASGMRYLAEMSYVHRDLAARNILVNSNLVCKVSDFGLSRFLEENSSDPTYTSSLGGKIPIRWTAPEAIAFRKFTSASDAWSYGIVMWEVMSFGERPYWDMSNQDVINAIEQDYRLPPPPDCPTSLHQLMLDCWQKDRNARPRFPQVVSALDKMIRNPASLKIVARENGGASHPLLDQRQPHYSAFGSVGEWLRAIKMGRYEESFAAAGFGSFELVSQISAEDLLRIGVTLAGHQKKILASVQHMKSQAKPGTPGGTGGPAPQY
The series can be described thus: biochemical. The conditions noted are these: read-out: Percent control.

T1 sequence (P08581 25-1390): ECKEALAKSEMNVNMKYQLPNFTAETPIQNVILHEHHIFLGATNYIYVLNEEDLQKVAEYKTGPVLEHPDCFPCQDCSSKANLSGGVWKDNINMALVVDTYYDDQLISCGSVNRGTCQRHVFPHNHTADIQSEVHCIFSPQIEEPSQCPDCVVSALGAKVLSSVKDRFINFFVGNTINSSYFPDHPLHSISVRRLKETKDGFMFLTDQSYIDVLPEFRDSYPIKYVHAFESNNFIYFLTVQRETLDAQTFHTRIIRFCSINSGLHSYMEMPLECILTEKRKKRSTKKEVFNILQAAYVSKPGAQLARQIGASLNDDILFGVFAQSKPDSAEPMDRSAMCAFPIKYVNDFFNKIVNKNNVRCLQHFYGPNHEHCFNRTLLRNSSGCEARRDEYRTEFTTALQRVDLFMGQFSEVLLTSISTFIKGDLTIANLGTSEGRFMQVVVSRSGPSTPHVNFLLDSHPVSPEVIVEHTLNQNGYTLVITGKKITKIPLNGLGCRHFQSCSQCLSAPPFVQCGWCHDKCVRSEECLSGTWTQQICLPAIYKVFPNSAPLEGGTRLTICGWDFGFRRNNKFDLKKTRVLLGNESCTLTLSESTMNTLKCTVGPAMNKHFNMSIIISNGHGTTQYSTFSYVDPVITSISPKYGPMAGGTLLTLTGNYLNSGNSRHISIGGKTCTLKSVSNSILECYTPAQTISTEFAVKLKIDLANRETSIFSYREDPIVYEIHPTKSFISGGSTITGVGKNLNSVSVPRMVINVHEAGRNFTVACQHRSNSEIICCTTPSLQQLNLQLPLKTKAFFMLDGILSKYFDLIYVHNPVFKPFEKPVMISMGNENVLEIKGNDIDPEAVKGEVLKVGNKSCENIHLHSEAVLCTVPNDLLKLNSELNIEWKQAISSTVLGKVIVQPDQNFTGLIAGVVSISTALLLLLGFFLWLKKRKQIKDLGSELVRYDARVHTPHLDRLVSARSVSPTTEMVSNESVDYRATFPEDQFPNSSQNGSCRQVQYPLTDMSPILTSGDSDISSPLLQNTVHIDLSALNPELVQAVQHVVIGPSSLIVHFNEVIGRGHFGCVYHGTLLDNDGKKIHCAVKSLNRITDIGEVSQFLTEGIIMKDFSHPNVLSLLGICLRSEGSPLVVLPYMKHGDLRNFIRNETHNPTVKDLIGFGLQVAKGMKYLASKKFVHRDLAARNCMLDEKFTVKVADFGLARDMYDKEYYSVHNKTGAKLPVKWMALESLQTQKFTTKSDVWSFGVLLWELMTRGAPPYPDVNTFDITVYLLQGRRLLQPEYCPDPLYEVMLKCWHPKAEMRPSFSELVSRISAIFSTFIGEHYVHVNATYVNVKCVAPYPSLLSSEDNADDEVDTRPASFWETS
MET(Y1235D), sequence (P08581 25-1390 Y1235D): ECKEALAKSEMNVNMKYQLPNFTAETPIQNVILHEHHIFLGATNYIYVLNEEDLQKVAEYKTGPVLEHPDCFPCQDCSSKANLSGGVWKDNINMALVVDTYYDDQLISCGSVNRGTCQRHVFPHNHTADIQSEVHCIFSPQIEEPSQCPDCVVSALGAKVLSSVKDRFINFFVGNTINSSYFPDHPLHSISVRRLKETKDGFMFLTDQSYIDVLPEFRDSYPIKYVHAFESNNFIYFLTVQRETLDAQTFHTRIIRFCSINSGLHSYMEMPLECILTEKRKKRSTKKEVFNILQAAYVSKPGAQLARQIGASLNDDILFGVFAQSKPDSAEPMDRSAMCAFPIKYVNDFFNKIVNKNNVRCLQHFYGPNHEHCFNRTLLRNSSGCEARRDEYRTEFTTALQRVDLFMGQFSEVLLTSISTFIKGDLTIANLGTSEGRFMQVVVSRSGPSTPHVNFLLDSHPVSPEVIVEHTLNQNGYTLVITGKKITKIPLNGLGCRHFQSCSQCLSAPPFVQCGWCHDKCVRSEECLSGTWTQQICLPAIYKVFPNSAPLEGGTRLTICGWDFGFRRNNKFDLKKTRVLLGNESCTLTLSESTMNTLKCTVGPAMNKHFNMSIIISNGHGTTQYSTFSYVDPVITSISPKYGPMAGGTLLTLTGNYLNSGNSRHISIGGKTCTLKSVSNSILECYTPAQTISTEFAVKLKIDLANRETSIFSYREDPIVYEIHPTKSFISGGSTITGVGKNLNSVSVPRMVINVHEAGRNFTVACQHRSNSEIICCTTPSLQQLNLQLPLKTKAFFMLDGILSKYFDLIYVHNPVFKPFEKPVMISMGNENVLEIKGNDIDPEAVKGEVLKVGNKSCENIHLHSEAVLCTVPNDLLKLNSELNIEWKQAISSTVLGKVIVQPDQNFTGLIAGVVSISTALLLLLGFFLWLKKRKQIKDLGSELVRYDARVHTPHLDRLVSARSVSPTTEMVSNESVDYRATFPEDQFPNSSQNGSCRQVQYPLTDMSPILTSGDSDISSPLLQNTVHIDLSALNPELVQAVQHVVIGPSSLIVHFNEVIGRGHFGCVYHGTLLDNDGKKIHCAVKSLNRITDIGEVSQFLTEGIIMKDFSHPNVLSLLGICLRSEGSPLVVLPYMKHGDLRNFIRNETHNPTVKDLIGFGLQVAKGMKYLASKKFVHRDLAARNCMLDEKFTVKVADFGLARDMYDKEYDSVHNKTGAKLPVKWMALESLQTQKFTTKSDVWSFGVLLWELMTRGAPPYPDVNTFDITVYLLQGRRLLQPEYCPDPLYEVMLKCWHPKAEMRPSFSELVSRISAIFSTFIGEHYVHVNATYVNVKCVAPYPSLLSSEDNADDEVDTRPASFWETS

On to `Cc1ccc(NC(=O)c2ccc(CN3CCN(C)CC3)cc2)cc1Nc1nccc(-c2cccnc2)[n+]1[Pt-2]1([Cl])[NH2+]C2CCCCC2[NH2+]1` (centres unmarked) [1b, oxaliplatin-imatinib], for which the Percent control at MET [1] was found to be 88%; at MET(Y1235D), 100%; at MET(M1250T), 89%. Moreover, in [2], the “chemical stability in all conditions tested” value was “stable”.

As for `C#Cc1cccc(Nc2c3cc(OCCOC)c(OCCOC)cc3nc[n+]2[Pt@SP2-2]([NH3+])([NH3+])[Cl])c1` [2a, cisplatin-erlotinib], the Percent control at MET [1] is reported as 63%; at MET(Y1235D), 92%; at ABL2, 46%; on SRC, 66%; at MET(M1250T), 95%; at SYK it was 88%. The “chemical stability in all conditions tested” value in [2] was “stable”.

As to `COc1cc2c(Nc3ccc(Br)cc3F)[n+]([Pt-2]3([Cl])[NH2+]C4CCCCC4[NH2+]3)cnc2cc1OCC1CCN(C)CC1` (centres unmarked) [3b, oxaliplatin-vandetanib], the Percent control on ABL2 stood at 20%; on SRC, 0.5%; on SYK it was 85%.

`C#Cc1cccc(Nc2ncnc3cc(OCCOC)c(OCCOC)cc23)c1` [Erlotinib]: the remaining activity at 10 µM on EPHB6 was 14.5%; at FYN it was 100%; on LTK, 8.2%; at KIT it was 14.5%; at MET [3] it was 27.5%; at EPHB4, 18%.

Regarding `Cc1ccc(NC(=O)c2ccc(CN3CCN(C)CC3)cc2)cc1Nc1nccc(-c2cccnc2)n1` [Imatinib, reference compound], the results for the remaining activity at 10 µM on KIT and at MET [3] were 0.1% and 100%, respectively.

As for `COc1cc2c(Nc3ccc(Br)cc3F)ncnc2cc1OCC1CCN(C)CC1` [Vandetanib, reference compound], the remaining activity at 10 µM at EPHB6 worked out at 0.8%; on FYN it was 3.5%; at LTK, 5.2%; at EPHB4, 4.9%.
